Test results published in patent US10947252B2, “Inhibitors of KEAP1-Nrf2 protein-protein interaction” (Janssen Pharmaceutica NV, priority 2018, dated 2021).

Assays:
[1] = tested on: Glo-Response ARE-luc2P HEK293 cell line; experiment: ARE luciferase reporter cell-based assay; conditions: Homo sapiens, HEK293, 24 h, average of results obtained;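 note: luciferase signal tracks Nrf2 activation of the ARE once compounds disrupt KEAP1-Nrf2 binding, read with One-Glo reagent, DMSO serving as low control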
[2] = target: Kelch domain of human KEAP1 (321-624 aa) (Homo sapiens (Human), UniProt Q14145); experiment: KEAP1 KELCH ThermoFluor binding assay; conditions: KEAP Kelch […], 1,8-ANS, pH 7.0, average of results obtained, read-out: Tf Kd;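 note: Ligand-induced melting temperature shift of E. coli-expressed KEAP1 Kelch protein, Kd estimated from concentration-response curves of ΔTm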
Kelch domain of human KEAP1 (321-624 aa), sequence (Q14145 321-624): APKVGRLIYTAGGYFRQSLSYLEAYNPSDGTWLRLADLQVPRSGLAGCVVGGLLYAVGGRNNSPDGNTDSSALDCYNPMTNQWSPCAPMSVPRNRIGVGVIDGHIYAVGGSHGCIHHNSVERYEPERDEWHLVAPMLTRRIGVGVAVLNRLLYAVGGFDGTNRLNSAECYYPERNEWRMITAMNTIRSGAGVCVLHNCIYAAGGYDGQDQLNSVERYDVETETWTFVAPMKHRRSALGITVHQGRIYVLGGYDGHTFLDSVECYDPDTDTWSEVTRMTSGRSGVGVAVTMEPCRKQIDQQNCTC

Compound	Kd [2] [µM]	EC50 [1] [µM]
Cc1ccc([C@H](c2ccn3c(C(F)(F)F)nnc3c2C)C(C)(C)C(=O)O)cc1CN1CC2(CCOCC2)Oc2nc(N[C@@H](C)CCO)c(C)cc2S1(=O)=O (single isomer, unassigned) [Example 123, (*R)-3-(3-((7′-(((S)-4-Hydroxybutan-2-yl)amino)-8′-methyl-1′,1′-dioxido-2,3,5,6-tetrahydrospiro[pyran-4,4′-pyrido[2,3-b][1,4,5]oxathiazepin]-2′(3′H)-yl)methyl)-4-methylphenyl)-2,2-dimethyl-3-(8-methyl-3-(trifluoromethyl)-[1,2,4[triazolo[4,3-a]pyridine-7-yl)propanoic Acid]	< 0.001	0.0289
Cc1ccc([C@H](c2ccn3c(C(F)(F)F)nnc3c2C)C(C)(C)C(=O)O)cc1CN1CC2(CCOCC2)Oc2nc(N[C@H](C)C(C)(C)O)c(C)cc2S1(=O)=O (single isomer, unassigned) [Example 124, (*R)-3-(3-((7′-(((R)-3-Hydroxy-3-methylbutan-2-yl)amino)-8′-methyl-1′,1′-dioxido-2,3,5,6-tetrahydrospiro[pyran-4,4′-pyrido[2,3-b][1,4,5]oxathiazepin]-2′(3′H)-yl)methyl)-4-methylphenyl)-2,2-dimethyl-3-(8-methyl-3-(trifluoromethyl)-[1,2,4]triazolo[4,3-a]pyridin-7-yl)propanoic Acid]	< 0.001	0.0288
Cc1ccc([C@H](c2ccn3c(C(F)(F)F)nnc3c2C)C(C)(C)C(=O)O)cc1CN1CC2(CCOCC2)Oc2nc(N[C@@H](C)CCO)ccc2S1(=O)=O (single isomer, unassigned) [Example 122, (*R)-3-(3-((7′-(((S)-4-Hydroxybutan-2-yl)amino)-1′,1′-dioxido-2,3,5,6-tetrahydrospiro[pyran-4,4′-pyrido[2,3-b][1,4,5]oxathiazepin]-2′(3′H)-yl)methyl)-4-methylphenyl)-2,2-dimethyl-3-(8-methyl-3-(trifluoromethyl)-[1,2,4[triazolo[4,3-a]pyridine-7-yl)propanoic Acid]	8.93	13
Cc1cnc([C@@H](c2ccn3c(C(F)(F)F)nnc3c2C)C(C)(C)C(=O)O)cc1CN1CC2(CCOCC2)Oc2ncccc2S1(=O)=O (single isomer, unassigned) [Example 56, (*S)-3-(4-((1′,1′-Dioxido-2,3,5,6-tetrahydrospiro[pyran-4,4′-pyrido[2,3-b][1,4,5]oxathiazepin]-2′(3′H)-yl)methyl)-5-methylpyridin-2-yl)-2,2-dimethyl-3-(8-methyl-3-(trifluoromethyl)-[1,2,4]triazolo[4,3-a]pyridin-7-yl)propanoic Acid]	< 0.001	0.048
Cc1ccc([C@H](CC(=O)O)c2ccc3c(nnn3CC3CC3)c2C)cc1CN1CC2(COC2)Oc2ccccc2S1(=O)=O (single isomer, unassigned) [Example 77, (*S)-3-(1-(Cyclopropylmethyl)-4-methyl-1H-benzo[d][1,2,3]triazol-5-yl)-3-(3-((1′,1′-dioxidospiro[benzo[b][1,4,5]oxathiazepin-4,3′-oxetan]-2,(3H)-yl)methyl)-4-methylphenyl)propanoic Acid]	0.00042	0.0157
Cc1cnc2c(c1)S(=O)(=O)N(Cc1cc([C@H](c3ccn4c(C5CC5)nnc4c3C)C(C)(C)C(=O)O)ccc1C)CC1(CC1)O2 (single isomer, unassigned) [Example 393, (*R)-3-(3-Cyclopropyl-8-methyl-[1,2,4]triazolo[4,3-a]pyridin-7-yl)-2,2-dimethyl-3-(4-methyl-3-((8′-methyl-1′,1′-dioxidospiro[cyclopropane-1,4′-pyrido[2,3-b][1,4,5]oxathiazepin]-2′(3′H)-yl)methyl)phenyl)propanoic Acid]	2.1	4.8
CCn1nnc2c(C)c([C@H](CC(=O)O)c3ccc(C)c(CN4C[C@H]5CCCN5c5ncccc5S4(=O)=O)n3)ccc21 (single isomer, unassigned) [Example 297, (*S)-3-(6-(((R)-5,5-Dioxido-7a,8,9,10-tetrahydropyrido[2,3-f]pyrrolo[2,1-d][1,2,5]thiadiazepin-6(7H)-yl)methyl)-5-methylpyridin-2-yl)-3-(1-ethyl-4-methyl-1H-benzo[d][1,2,3]triazol-5-yl)propanoic Acid]	< 0.001	0.006
Cc1cnc2c(c1)S(=O)(=O)N(Cc1cc(C(c3ccn4c(C5CC5)nnc4c3C)C(C)(C)C(=O)O)ccc1C)CC1(CC1)O2 (racemic) [Example 391, (R/S)-3-(3-Cyclopropyl-8-methyl-[1,2,4]triazolo[4,3-a]pyridin-7-yl)-2,2-dimethyl-3-(4-methyl-3-((8′-methyl-1′,1′-dioxidospiro[cyclopropane-1,4′-pyrido[2,3-b][1,4,5]oxathiazepin]-2′(3′H)-yl)methyl)phenyl)propanoic Acid]	< 0.001	0.0267

Second part, led by results:

Kd [2] [µM]	Compound	EC50 [1] [µM]
< 0.001	Cc1ccc([C@@H](c2ccn3c(C(F)(F)F)nnc3c2C)C(C)(C)C(=O)O)cc1CN1CC2(CC2)Oc2nc(OCCN3CCC3)c(C)cc2S1(=O)=O (single isomer, unassigned) [Example 604, (*S)-3-(3-((7′-(2-(Azetidin-1-yl)ethoxy)-8′-methyl-1′,1′-dioxidospiro[cyclopropane-1,4′-pyrido[2,3-b][1,4,5]oxathiazepin]-2′(3′H)-yl)methyl)-4-methylphenyl)-2,2-dimethyl-3-(8-methyl-3-(trifluoromethyl)-[1,2,4]triazolo[4,3-a]pyridine-7-yl)propanoic Acid]	0.00882
< 0.001	Cc1ccc([C@H](CC(=O)O)c2cc(OC3CC3)c3c(c2)nnn3C)cc1CN1C[C@H]2CCCCN2c2ncccc2S1(=O)=O (single isomer, unassigned) [Example 405, (*S)-3-(7-Cyclopropoxy-1-methyl-1H-benzo[d][1,2,3]triazol-5-yl)-3-(3-(((*R)-5,5-dioxido-7,7a,8,9,10,11-hexahydro-6H-dipyrido[2,1-d:2′,3′-f][1,2,5]thiadiazepin-6-yl)methyl)-4-methylphenyl)propanoic Acid]	0.0074
< 0.001	Cc1ccc([C@H](CC(=O)O)c2ccn3c(C(F)F)nnc3c2C)cc1CN1CC2(CCOCC2)Oc2ncc(F)cc2S1(=O)=O (single isomer, unassigned) [Example 533, (*S)-3-(3-(Difluoromethyl)-8-methyl-[1,2,4]triazolo[4,3-a]pyridin-7-yl)-3-(3-((8′-fluoro-1′,1′-dioxido-2,3,5,6-tetrahydrospiro[pyran-4,4′-pyrido[2,3-b][1,4,5]oxathiazepin]-2′(3′H)-yl)methyl)-4-methylphenyl)propanoic Acid]	0.0313
< 0.001	Cc1ccc([C@H](c2ccn3c(C(F)(F)F)nnc3c2C)C(C)(C)C(=O)O)cc1CN1CC2(CCOCC2)Oc2nc(OCCCOCCCO)ccc2S1(=O)=O (single isomer, unassigned) [Example 608, (*R)-3-(3-((7′-(3-(3-Hydroxypropoxy)propoxy)-1′,1′-dioxido-2,3,5,6-tetrahydrospiro[pyran-4,4′-pyrido[2,3-b][1,4,5]oxathiazepin]-2′(3′H)-yl)methyl)-4-methylphenyl)-2,2-dimethyl-3-(8-methyl-3-(trifluoromethyl)-[1,2,4]triazolo[4,3-a]pyridin-7-yl)propanoic Acid]	0.00912
